Data on two compounds can be found in ChEMBL document CHEMBL4229350, “Antimicrobial activity and self-assembly behavior of antimicrobial peptide chensinin-1b with lipophilic alkyl tails” (Eur J Med Chem, 2018).

Assay [1] deals with U-937. The experiment in a line: Antiinflammatory activity in human U937 cells assessed as inhibition of LPS-induced TNF-alpha production up to 40 microg/ml after 24 hrs by ELISA relative to control. The assay is classed as functional.
For assay [2], the system named is U-937. The experiment in a line: Antiinflammatory activity in human U937 cells assessed as inhibition of LPS-induced IL-6 production up to 40 microg/ml after 24 hrs by ELISA relative to control. The assay is classed as functional.
The subject of assay [3] is Escherichia coli. The experiment in a line: Antimicrobial activity against Escherichia coli AS 1.349 assessed as induction of outer membrane permeabilization by measuring NPN uptake up to 50 uM by fluorescence assay. The assay is classed as functional, organism-based.
Assay [4] relates to Staphylococcus aureus. The experiment in a line: Antimicrobial activity against Staphylococcus aureus AS 1.72 assessed as induction of outer membrane permeabilization by measuring NPN uptake up to 50 uM by fluorescence assay. The assay is classed as functional, organism-based.

Calls of active or inactive are those of the source. No cut-off for these calls is given here. Bridge positions count the residues as written; N and C are the ends. Square brackets hold non-standard residues; d marks the D form. Peptide text beside a SMILES is read from it. * marks the point of attachment. X1 = CC[C@H](C)CCCCC(=O)*; Dab = NCC[C@H](N)C(=O)O

Turning to `CC[C@H](C)CCCCC(=O)N[C@@H](CCN)C(=O)N[C@H](C(=O)N[C@@H](CCN)C(=O)N[C@H]1CCNC(=O)[C@H]([C@@H](C)O)NC(=O)[C@H](CCN)NC(=O)[C@H](CCN)NC(=O)[C@H](CC(C)C)NC(=O)[C@@H](Cc2ccccc2)NC(=O)[C@H](CCN)NC1=O)[C@@H](C)O` (X1-[Dab]T[Dab][Dab][Dab][dF]L[Dab][Dab]T; lactam 4-C), the “inhibition (INH)” value in assay [1] amounted to 28%; in assay [2] it was 44%.

Turning to GENTAMICIN, the outcome in assay [3] and in assay [4] was Active.
